We go through two compounds from ChEMBL document CHEMBL4342527, “Discovery of Novel Fungal Lanosterol 14α-Demethylase (CYP51)/Histone Deacetylase Dual Inhibitors to Treat Azole-Resistant Candidiasis” (J Med Chem, 2020).

Data set [1] is described as follows: Selectivity index, ratio of IC50 for human A549 cells to MIC80 for azole-resistant Candida albicans 7781. Type of data set: toxicity.
Data set [2] in a line: Selectivity index, ratio of IC50 for human A549 cells to MIC80 for azole-resistant Candida albicans 0304103. The format is toxicity.
The subject of data set [3] is Candida albicans. In words: Antifungal activity against azole-resistant Candida albicans 0304103 infected in ICR mouse assessed as reduction in fungal burden in kidney at 20 mg/kg, po qd for 5 days measured 24 hrs post-last dose. The format is functional, organism-based.
Data set [4] has as its system Candida albicans. The data set can be described thus: Antifungal activity against azole-resistant Candida albicans 0304103 infected in ICR mouse assessed as mean survival time at 20 mg/kg, ip qd for 5 days (reference value: 10 days). The format is functional.
Data set [5] can be described thus: Selectivity index, ratio of IC50 for HUVEC to MIC80 for azole-resistant Candida albicans 0304103. Type of data set: toxicity. Conditions: human.
Data set [6] relates to Candida albicans. The data set can be described thus: Antifungal activity against azole-resistant Candida albicans 0304103 infected in ICR mouse assessed as inhibition of fungal infection in kidney at 20 mg/kg, po qd for 5 days and measured on day 6 by periodic acid schiff staining-based histological analysis. Type of data set: functional, organism-based.
Data set [7] relates to Candida albicans. In words: Antifungal activity against azole-resistant Candida albicans 0304103 infected in ICR mouse assessed as inhibition of filamentation at 20 mg/kg, ip qd for 5 days and measured on day 6 by periodic acid schiff staining-based histological analysis. The format is functional, organism-based.
The nature of data set [8]: Selectivity index, ratio of IC50 for human A549 cells to MIC80 for azole-resistant Candida tropicalis 5008. The format is toxicity.
Data set [9] concerns the target Histone deacetylase 1 (Homo sapiens, UniProt Q13547). In words: Inhibition of HDAC1 (unknown origin) after 30 mins by fluorescence based assay.
The subject of data set [10] is Candida albicans. The data set can be described thus: Antifungal activity against azole-resistant Candida albicans 4108 after 48 hrs by spectrophotometry-based serial microdilution method. The settings on record: Candida albicans, 4108, 48 h. Type of data set: functional.
Data set [11] relates to Candida albicans. In words: Inhibition of yeast to hypha transition in azole resistant Candida albicans 0304103 assessed as down regulation of EFG1 gene expression at 32 ug /ml after 16 hrs by SYBR Green I dye based RT-PCR analysis. The format is functional, organism-based.
The test system of data set [12] is Candida albicans. In words: Inhibition of yeast to hypha transition in azole resistant Candida albicans 0304103 assessed as down regulation of TEC1 gene expression at 32 ug /ml after 16 hrs by SYBR Green I dye based RT-PCR analysis. The format is functional, organism-based.
The target in data set [13] is T1, Lanosterol 14-alpha demethylase (Candida albicans (strain SC5314 / ATCC MYA-2876) (Yeast), UniProt P10613). The data set can be described thus: Inhibition of CYP51 in azole-resistant Candida albicans 0304103 assessed as reduction in ERG11 gene expression at 32 ug/ml after 16 hrs by SYBR Green-1 dye based RT-PCR analysis. Set-up: species or system 304103.
T1 sequence (P10613 whole entry): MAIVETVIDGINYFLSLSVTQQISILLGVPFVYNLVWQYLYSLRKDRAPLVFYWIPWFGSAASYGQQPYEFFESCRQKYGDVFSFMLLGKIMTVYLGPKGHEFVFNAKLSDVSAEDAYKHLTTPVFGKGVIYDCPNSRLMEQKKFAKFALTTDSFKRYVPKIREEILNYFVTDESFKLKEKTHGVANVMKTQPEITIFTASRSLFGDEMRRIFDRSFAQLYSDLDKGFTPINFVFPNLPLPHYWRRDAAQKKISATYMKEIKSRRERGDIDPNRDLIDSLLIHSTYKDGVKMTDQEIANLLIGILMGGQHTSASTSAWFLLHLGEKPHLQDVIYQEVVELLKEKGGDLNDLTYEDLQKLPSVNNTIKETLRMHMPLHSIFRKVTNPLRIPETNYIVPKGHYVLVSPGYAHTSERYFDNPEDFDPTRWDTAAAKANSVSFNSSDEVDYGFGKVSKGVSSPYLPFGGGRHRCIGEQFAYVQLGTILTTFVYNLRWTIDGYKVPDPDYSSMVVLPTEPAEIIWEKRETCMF
Data set [14] is described as follows: Selectivity index, ratio of IC50 for HUVEC to MIC80 for azole-resistant Candida albicans 4108. The settings on record: human. Type of data set: toxicity.
For data set [15], the target named is T1, Lanosterol 14-alpha demethylase. In words: Inhibition of CYP51 in azole-resistant Candida albicans 0304103 assessed as eburicol level at 0.5 ug/ml after 24 hrs by GC-MS analysis relative to control. Set-up: scale not given: the % may be the effect or the level left.
For data set [16], the system named is Candida albicans. In words: Inhibition of HDAC in azole-resistant Candida albicans 0304103 assessed as reduction in CDR1 gene expression at 32 ug/ml after 16 hrs by SYBR Green-1 dye based RT-PCR analysis. Conditions: 304103.
Data set [17] concerns the target Histone deacetylase. In words: Inhibition of HDAC in HUVEC using Boc-Lys(Ac)-AMC as substrate preincubated for 12 hrs followed by substrate addition and measured after 4 hrs by fluorimetry. The format is ADME, cell-based, Homo sapiens.
Data set [18] concerns Candida albicans. The data set can be described thus: Inhibition of yeast to hypha transition in azole resistant Candida albicans 0304103 assessed as down regulation of CPH1 gene expression at 32 ug /ml after 16 hrs by SYBR Green I dye based RT-PCR analysis. The format is functional, organism-based.
In data set [19] the test system is Candida albicans. The data set can be described thus: Inhibition of biofilm formation in azole resistant Candida albicans 0304103 after 24 hrs by XTT assay. Type of data set: functional, organism-based.
The subject of data set [20] is Candida albicans. The data set can be described thus: Inhibition of biofilm formation in azole resistant Candida albicans 0304103 assessed as down regulation of ALS3 gene expression at 32 ug /ml after 16 hrs by SYBR Green I dye based RT-PCR analysis. Type of data set: functional, organism-based.
The subject of data set [21] is Candida tropicalis. The data set can be described thus: Antifungal activity against azole-resistant Candida tropicalis 5008 after 48 hrs by spectrophotometry-based serial microdilution method. The format is functional. Conditions: Candida tropicalis, 5008, 48 h.
In data set [22] the target is T1, Lanosterol 14-alpha demethylase. The data set can be described thus: Inhibition of CYP51 in azole-resistant Candida albicans 0304103 assessed as ergosterol content at 0.5 ug/ml after 24 hrs by GC-MS analysis (reference value: 75.21%). Set-up: scale not given: the % may be the effect or the level left.
The test system of data set [23] is Candida albicans. In words: Inhibition of HDAC in azole-resistant Candida albicans 0304103 assessed as reduction in CDR2 gene expression at 32 ug/ml after 16 hrs by SYBR Green-1 dye based RT-PCR analysis. The settings on record: 304103.

pIC50: −log10 of the molar value. Converted amounts (≈) assume the structure as drawn. The source made the active and inactive calls. The rule behind the calls is not given here.

Histone deacetylase 1, sequence (Q13547 whole entry): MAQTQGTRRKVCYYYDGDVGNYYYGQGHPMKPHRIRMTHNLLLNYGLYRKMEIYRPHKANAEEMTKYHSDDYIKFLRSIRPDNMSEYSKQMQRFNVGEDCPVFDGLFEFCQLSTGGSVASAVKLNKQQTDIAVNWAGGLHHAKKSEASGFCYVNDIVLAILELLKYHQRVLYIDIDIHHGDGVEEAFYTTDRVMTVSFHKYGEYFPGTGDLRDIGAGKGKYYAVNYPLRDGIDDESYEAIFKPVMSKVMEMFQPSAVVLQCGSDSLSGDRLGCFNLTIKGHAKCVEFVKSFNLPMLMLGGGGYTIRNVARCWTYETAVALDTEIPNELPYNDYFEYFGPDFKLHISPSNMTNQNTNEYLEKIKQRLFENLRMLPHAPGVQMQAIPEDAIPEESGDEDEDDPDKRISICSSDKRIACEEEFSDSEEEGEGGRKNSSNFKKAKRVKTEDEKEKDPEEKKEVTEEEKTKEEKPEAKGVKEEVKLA

As for `CN(Cc1ccc(-n2cnn(CCCCc3ccc(C(=O)NO)cc3)c2=O)cc1)CC(O)(Cn1cncn1)c1ccc(F)cc1F` (racemic), the selectivity ratio in data set [1], in data set [2], in [5], in data set [8] and in data set [14] was 2 to 16 each time. For the same compound, the result in data set [3] was Active. For the same compound, in [4], the MST was determined as 20 days. For the same compound, the inhibition entry in data set [6], in [7], in data set [11], in [12], in data set [16] and in data set [18] was “Active” each time. In addition, the inhibition entry in data set [20] and in [23] was “Active” throughout. Besides, the pIC50 in data set [9] was 6.55. Also, the MIC80 in [10] and in data set [21] was 8 mg/L (≈ 12.6 µM) throughout. Moreover, in [13], the “inhibition (INH)” value is listed as “Active”. Besides, the Activity in data set [15] stood at 13.22%; in [22], 61.48%. The IC50 in data set [17] was determined as 6.8 µM. Besides, in data set [19], the inhibition entry was “Dose-dependent effect”.

On to `CN(Cc1ccc(OCCCOc2ccc(CC(=O)NO)cc2)cc1)CC(O)(Cn1cncn1)c1ccc(F)cc1F` (racemic), for which the selectivity ratio in [1], in data set [2], in [5], in [8] and in [14] was 2 to 16 each time. Further, the outcome in data set [3] was Active. Also, in data set [4], the MST came to 16.5 days. The inhibition result in data set [6], in data set [7], in [11], in data set [12], in data set [16] and in data set [18] was “Active” each time. Also, the inhibition entry in [20] and in data set [23] was “Active” each time. Moreover, the negative-log IC50 (pIC50) in data set [9] is 6.16. In addition, the MIC80 in [10] amounted to 0.5 mg/L (≈ 0.86 µM); in data set [21], 0.25 mg/L (≈ 0.43 µM). In addition, the “inhibition (INH)” value in [13] was “Active”. Also, the results for the Activity in data set [15] and in data set [22] were 65.4% and 18.44%, respectively. In addition, the half-inhibitory concentration (IC50) in data set [17] turned out to be 2.7 µM. The inhibition entry in data set [19] is “Dose-dependent effect”.
